Assay [1] concerns the target Human immunodeficiency virus type 1 integrase (Human immunodeficiency virus 1, UniProt Q7ZJM1). Description: Inhibition of human immunodeficiency virus - 1 (HIV-1) integrase.
In the next assay the test system is CCRF-CEM. Description: Tested for antiviral activity against Human Immunodeficiency virus (HIV-1) replication in CEM cells. The class given is functional, cell-based.
Assay [2] can be described thus: Cytotoxicity in a cell viability MTT assay. It is filed as functional. The settings on record: read-out: TC50 (the source's name). For orientation: Tetrazolium dyes change colour on reduction, which living cells bring about.

The results in this text go back to ChEMBL document CHEMBL1134155, “Synthesis and HIV-1 integrase inhibitory activities of catechol and bis-catechol derivatives” (Bioorg Med Chem Lett, 2001).

Each structure is given as a SMILES string.

By IC50 is commonly meant the midpoint of a concentration-inhibition curve. Higher therefore signals weaker potency.

Sequence of Human immunodeficiency virus type 1 integrase (Q7ZJM1 whole entry): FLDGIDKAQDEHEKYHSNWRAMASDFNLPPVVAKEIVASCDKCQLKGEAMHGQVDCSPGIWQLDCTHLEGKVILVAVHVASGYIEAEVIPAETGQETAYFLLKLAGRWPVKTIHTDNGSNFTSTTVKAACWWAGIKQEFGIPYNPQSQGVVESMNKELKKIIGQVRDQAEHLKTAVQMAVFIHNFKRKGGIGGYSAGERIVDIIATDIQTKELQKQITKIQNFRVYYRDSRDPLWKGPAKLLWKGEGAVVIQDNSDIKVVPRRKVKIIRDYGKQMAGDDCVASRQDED

`Cc1cc2c(F)cccc2c(C)c1-c1ccc(O)c(O)c1`: the IC50 in assay [1] was 500 µM.
Take `Cc1cc2cc(O)c(O)cc2c(C)c1-c1ccccc1C(F)(F)F`: the IC50 came to 10.3 µM in the assay with CCRF-CEM and 22 µM in assay [1]. Also, the CC50 in assay [2] came out at 13.6 µM.
The compound `Cc1cc2cc(O)c(O)cc2c(C)c1-c1ccc(F)cc1` came in with an IC50 in assay [1] of 138 µM.
In turn, `Cc1ccc2cc(C)c(-c3ccc(O)c(O)c3)c(C)c2c1` had an IC50 in assay [1] of 157 µM.
As for `Cc1ccc(-c2c(C)cc3cc(O)c(O)cc3c2C)cc1`, in assay [1], the IC50 was determined as 84 µM.
Regarding `Cc1cc2cc(O)c(O)cc2c(C)c1-c1ccc(C(F)(F)F)cc1`, the figures for the IC50 (in the assay on CCRF-CEM; in assay [1]) were 10.5 µM and 21 µM, respectively. In assay [2], the CC50 was 19 µM.
`Cc1cc2ccccc2c(C)c1-c1ccc(O)c(O)c1` registered an IC50 in assay [1] of 500 µM.
Regarding `Oc1ccc(-c2ccc3cc(O)c(O)cc3c2)cc1O`, the IC50 stood at 9.9 µM in the assay with CCRF-CEM and 2.1 µM in assay [1]. In addition, the CC50 in assay [2] is 51 µM.
In the case of `Oc1cc2c(cc1O)C1Cc3cc(O)c(O)cc3C(C2)O1`, the results for the IC50 (with CCRF-CEM; in assay [1]) were 98 µM and 1.3 µM, respectively. For the same compound, the CC50 in assay [2] is more than 100 µM.
In the case of `Cc1cc2cc(O)c(O)cc2c(C)c1-c1ccccc1`, the IC50 in assay [1] was 76 µM.
Consider `Cc1cc2cc(O)c(O)cc2c(C)c1-c1cccc(C(F)(F)F)c1`, for which the half-maximal inhibitory concentration (IC50) in the assay with CCRF-CEM worked out at 5.7 µM; in assay [1] it was 13 µM. For the same compound, in assay [2], the CC50 stood at 72.6 µM.
Consider `Cc1cc2ccc(F)cc2c(C)c1-c1ccc(O)c(O)c1`, for which, in assay [1], it took 500 µM to reach half-maximal inhibition (IC50).
`Cc1cc2cc(O)c(O)cc2c(C)c1-c1ccc(O)c(O)c1`: the figures for the IC50 (with CCRF-CEM; in assay [1]) were 8.7 µM and 23 µM, respectively. The CC50 in assay [2] stood at 33 µM.
Take `Cc1cc2cc(O)c(O)cc2c(C)c1-c1ccccc1F`: the IC50 in assay [1] turned out to be 500 µM.
